According to PubChem BioAssay (NCI):
Where “and” joins values, the source holds several entries; their conditions need not be identical. Identical values can stand only once.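 96-well plates; 48 h exposure; 5 concentrations. Endpoints by linear interpolation between flanking doses. Not reached: highest tested concentration assigned. Abbreviation: GI50, concentration required for 50% inhibition of growth. The concentration for full growth arrest is given as TGI.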

How the values were obtained:
Assay in all cases: inhibition of tumour cell growth, NCI panel, 48 h
NCI-H226 lung = test system: NCI-H226 lung
SK-MEL-28 melanoma = test system: SK-MEL-28 melanoma
HOP-92 NSCLC = test system: HOP-92 NSCLC
SF-295 CNS = test system: SF-295 CNS
786-0 renal = test system: 786-0 renal
ACHN renal = test system: ACHN renal
HL-60(TB) leukemia = test system: HL-60(TB) leukemia
MDA-MB-435 = test system: MDA-MB-435
SK-MEL-5 melanoma = test system: SK-MEL-5 melanoma
HT29 colon = test system: HT29 colon

SMILES | GI50 (NCI-H226 lung) | TGI (NCI-H226 lung) | GI50 (SK-MEL-28 melanoma) [µM] | TGI (SK-MEL-28 melanoma) | GI50 (HOP-92 NSCLC) [µM] | TGI (HOP-92 NSCLC) | GI50 (SF-295 CNS) [µM] | TGI (SF-295 CNS) | GI50 (786-0 renal) [µM] | TGI (786-0 renal) [µM] | GI50 (ACHN renal) [µM] | TGI (ACHN renal) [µM] | GI50 (HL-60(TB) leukemia) [µM] | TGI (HL-60(TB) leukemia) [µM] | GI50 (MDA-MB-435) [µM] | TGI (MDA-MB-435) [µM] | GI50 (SK-MEL-5 melanoma) [µM] | TGI (SK-MEL-5 melanoma) | GI50 (HT29 colon) [µM] | TGI (HT29 colon)
CCN(CC)CCOc1ccc(/C(=C(\C)Cc2ccc(OC)cc2)c2ccc(OC(=O)NCc3ccccc3)cc2)cc1 | 4.71 µM | 18.7 µM | 1.82 | 3.44 µM | 1.48 | 3.17 µM | 1.75 | 3.3 µM | 1.64 | 3.04 | 1.85 | 3.58 | 1.3 | 2.97 | 1.86 | 3.97 | 1.75 | 3.16 µM | 1.89 | 4.29 µM
CC#CS(=O)(=O)c1ccccc1 | – | 24.1 µM | – | 12.6 µM | – | 6.96 µM | – | 14.5 µM | – | 16.4 | – | 12.8 | – | 3.81 | – | 22.9 | – | 15.4 µM | – | 14.4 µM
Cc1c2c(nn1C(=O)c1nn(-c3ccc(Cl)cc3)cc1O)-c1ccccc1CC2 | 0.0968 µM | > 25.7 µM | 0.293 | > 100 µM | 0.0521 | > 100 µM | 0.0119 | 0.0548 µM | 0.319 | > 64.1 | 0.0456 | > 100 | 0.0507 | 1.12 | 0.0412 | > 100 | 0.313 | – | 0.226 | > 50.6 µM
COc1ccc(-c2cc(=O)c3c(OC)c(OC)c(OC)c(OC)c3o2)cc1OC | – | > 100 µM | – | > 100 µM | – | 74.4 µM | – | > 100 µM | – | > 100 | – | > 100 | – | 59 | – | > 100 | – | > 100 µM | – | > 100 µM
COc1ccc(/C=C2\CN(Cc3cn(CCCNc4ccnc5cc(Cl)ccc45)nn3)C/C(=C\c3ccc(OC)c(OC)c3)C2=O)cc1OC | 1.97 µM | 4.74 µM | 2.42 | 8.7 µM | 1.45 | 5.19 µM | 2.08 | 4.1 µM | 1.95 | 4.39 | 1.64 | 3.11 | 0.685 | 4.03 | 1.12 | 5.32 | 2.71 | 10.2 µM | 0.663 | 2.38 µM
CCCc1cc2cc(-n3nc(C)c4c3CC(C)(C)CC4=O)cc(NC3CCC(O)CC3)c2c(=O)[nH]1 (stereo not drawn) | 5.36 µM | > 100 µM | 0.232 | > 100 µM | 0.194 | 1.8 µM | 0.307 | 2.06 µM | 0.874 | > 100 | 0.0712 | > 100 | 0.13 | 1.2 | 0.0812 | > 100 | 0.241 | 3.56 µM | 0.0308 | > 100 µM
O=C(Nc1nccs1)c1cc2c(cc1Cl)Sc1nccn1S2(=O)=O | 19.6 µM | 35.6 µM | 20 | 37.6 µM | – | 39.4 µM | 18.3 | 34.5 µM | 16 | 29.4 | 17.7 | 32.2 | 13.6 | 31.2 | – | 31.3 | 16.5 | 30 µM | 19.8 | 46.7 µM
Cc1cccc2c(N=Nc3ccc(S(N)(=O)=O)cc3)c(O)[nH]c12 | > 25 µM | > 25 µM | > 25 | > 25 µM | > 25 | > 25 µM | > 25 | > 25 µM | > 25 | > 25 | > 25 | > 25 | > 25 | > 25 | > 25 | > 25 | > 25 | > 25 µM | > 25 | > 25 µM
CC(=O)O[C@H]1C(=O)O[C@@H]2C[C@H]3C(C)=CC(=O)[C@@H](O)[C@]3(C)[C@H]3[C@@]4(O)OC[C@]32[C@@H]1[C@@H](C)[C@H]4O | < 0.0205 µM and 0.0366 µM | 0.0775 µM and 0.166 µM | < 0.0104 | 0.0577 µM and 0.142 µM | 0.0288 | 0.216 µM and 0.124 µM | 0.034 | 0.291 µM and 0.206 µM | – | 0.14 | – | 0.394 | – | 0.4 | – | 0.233 | < 0.01 | 0.0287 µM and 0.052 µM | 0.0374 | 1.38 µM and 1.26 µM
COc1ccc(/C(C)=C(\c2ccc(Cl)cc2)c2ccc(OCCN3CCCC3)cc2)cc1F | 4.47 µM | 8.88 µM | 3.13 | 6.27 µM | 3.12 | 6.63 µM | 2.92 | 6.25 µM | 3.39 | 7.02 | 4.06 | 7.44 | 3.54 | 7.89 | 1.48 | 4.65 | 4.1 | 7.78 µM | 0.724 | 3.47 µM
